Here are results for one substance from patent US20140066363A1, “CARBOHYDRATE NANOPARTICLES FOR PROLONGED EFFICACY OF ANTIMICROBIAL PEPTIDE” (priority 2011, published 2014).

Format in all cases: cell-based, Listeria monocytogenes
Assay [1] concerns L. monocytogenes. In words: BHI-agar deep-well model of nisin depletion (21 days, 4° C.) with bioassay, PG derivatives. The procedure: Nisin activity, either for those freshly prepared or stored in BHI agar deep-well, was determined as described by Pongtharangkul and Demirci (2004) with modifications. Agar diffusion bioassay was used to determine the nisin activity against L. monocytogenes. BHI (3.7%) solution containing 0.75% agar and 1.0% Tween 20 was prepared and autoclaved. After cooling to approximately 40° C., the solution was inoculated by a 1.0% volume of BHI broth containing L. monocytogenes V7 (ca. 108 colony-forming units/mL). To each square Petri-dish plate (10×10 cm), a 32 mL inoculated BHI agar solution was added and allowed to solidify. Thereafter, holes with 7.0 mm diameter were made using a cork borer, and 100 μL of each nisin preparation was added to each agar well. The Petri-dish plates were then incubated for 24 h at room temperature, and the size of inhibitory ring was measured to indicate the activity against L. monocytogenes.
In this study, a BHI-agar deep-well model was established to mimic the depletion of nisin at nutrient-containing surfaces, such as a food surface (FIG. 1). BHI is a nutritious culture medium that supplies protein and other nutrients necessary to support the growth of fastidious and nonfastidious microorganisms. It contains infusions from calf brains and beef hearts, proteose and peptone, dextrose, sodium chloride, and disodium phosphate. […] Therefore, BHI is an ideal nutrient model for studying nisin depletion and retention. Our experiments have consistently shown that BHI-containing broths and gels lead to rapid depletion of peptide activity. In a deep well filled with a liquid peptide preparation, peptide molecules diffuse from the solution into the gel (causing diffusion-based depletion), and BHI components diffuse from the agar gel into the solution (causing irreversible peptide adsorption or degradation).
For continuous sampling at various stages of storage, nisin preparations were added to the deep wells of the BHI-agar gel. For the deep-well storage, the inner surface of a well was used to mimic the outer surface of solid food. […]

Assay [2] relates to L. monocytogenes V7. In words: BHI-agar deep-well model of nisin depletion (50 days, 4° C.) with bioassay, emulsions. The procedure: To prepare emulsions, PG-OS and WCS-OS were each dissolved in sodium acetate buffer (50 mM, pH 5.5, 22° C.) to form a solution of 10 mg/mL. As a reference, 1.0 mg/mL of Tween 20 solution was also prepared using the sodium acetate buffer. Vegetable oil was added to each emulsifier solution, at twice (for PG-OS and WCS-OS) or 20 times (Tween 20) the weight of the emulsifier. […] Each mixture was further diluted with the same volume of sodium acetate buffer. […] These emulsions were sterilized using a boiling-water bath for 3 min before further tests. Nisin activity, either for those freshly prepared or stored in BHI agar deep-well, was determined as described by Pongtharangkul and […] (2004) with modifications. Agar diffusion bioassay was used to determine the nisin activity against L. monocytogenes. […] After cooling to approximately 40° C., the solution was inoculated by a 1.0% volume of BHI broth containing L. monocytogenes V7 (ca. 108 colony-forming units/mL). To each square Petri-dish plate (10×10 cm), a 32 mL inoculated BHI agar solution was added and allowed to solidify. […] The Petri-dish plates were then incubated for 24 h at room temperature, and the size of inhibitory ring was measured to indicate the activity against L. monocytogenes. […] The hot solution (225 mL) was poured into a 600-mL beaker to a height of 40 mm. After gel solidification, four wells (from gel surface to bottom) were made in each beaker using a 7.0-mm borer.

Assay [3] has as its system L. monocytogenes. In words: Control storage of emulsions in regular test tubes at 4° C. with bioassay. To be noted: 150 μg/mL nisin.
Method: The label “free nisin” denotes the preparation containing nisin only in buffer. The total initial concentration of nisin was 150 μg/mL for each preparation. One portion of each preparation was applied to the model system (labeled “Model”), and another portion was stored in a regular test tube as the control (labeled “Control”). Both model and control groups were aliquoted after various storage periods for the activity tests.
Nisin activity, either for those freshly prepared or stored in BHI agar deep-well, was determined as described by Pongtharangkul and Demirci (2004) with modifications. Agar diffusion bioassay was used to determine the nisin activity against L. monocytogenes. BHI (3.7%) solution containing 0.75% agar and 1.0% Tween 20 was prepared and autoclaved. After cooling to approximately 40° C., the solution was inoculated by a 1.0% volume of BHI broth containing L. monocytogenes V7 (ca. 108 colony-forming units/mL). To each square Petri-dish plate (10×10 cm), a 32 mL inoculated BHI agar solution was added and allowed to solidify. Thereafter, holes with 7.0 mm diameter were made using a cork borer, and 100 μL of each nisin preparation was added to each agar well. The Petri-dish plates were then incubated for 24 h at room temperature, and the size of inhibitory ring was measured to indicate the activity against L. monocytogenes. […]
Where [4] appears, read: initial nisin 150 μg/mL, calculated from ring size by standard curve.

With nisin [free nisin], the “retained activity at day 5” value in assay [1] (deep wells in BHI-agar gel, summary) is reported as “negligible”. Further, the “residual nisin activity after 7 days” value in assay [1] (deep-well model, 4° C., 100 μg/mL nisin) is listed as “negligible”. Also, the “nisin activity at 0 day” value in assay [1] (deep-well model, initial test, 100 μg/mL nisin) is “highest nisin activity”. Also, the “size of inhibitory ring after 40 days, model groups” value in assay [2] (deep-well model, 4° C., 150 μg/mL nisin) is “undetectable”. For the same substance, in assay [2] (setting [4]), the “available nisin after 5 days” value is 10.2 µg/mL, the “available nisin after 20 days” value was below 1 µg/mL and the “available nisin after 40 days” value is “negligible”. Also, in assay [3], the “change of inhibitory ring size during storage, control groups” value is listed as “did not show an appreciable change”.
